According to article PMC9533837 (Antiviral Research, 2003):
In brackets after ≈: the same amount, converted by molar mass. Like-named read-outs stand apart in the source and are kept apart here.

Experiments:
[1] = tested on: VAR isolate Rumbec; assay: organism not typed; format: cell-based, variola; conditions: Vero, read-out: IC50, VAR isolate Rumbec
[2] = tested on: VAR isolate V77-1605; assay: organism not typed; format: cell-based, variola; conditions: Vero, read-out: IC50, VAR isolate V77-1605
[3] = tested on: VAR isolate Kali-Muthu; assay: organism not typed; format: cell-based, variola; conditions: Vero, read-out: IC50, VAR isolate Kali-Muthu
[4] = tested on: VAR isolate Eth17; assay: organism not typed; format: cell-based, variola; conditions: Vero, read-out: IC50, VAR isolate Eth17
[5] = tested on: VAR isolate Juba; assay: organism not typed; format: cell-based, variola; conditions: Vero, read-out: IC50, VAR isolate Juba
[6] = tested on: VAR isolate V70-46; assay: organism not typed; format: cell-based, variola; conditions: Vero, read-out: IC50, VAR isolate V70-46
[7] = tested on: VAR-GAR (1966 Brazil Garcia isolate of VAR minor); assay: organism not typed; format: cell-based, variola minor; conditions: for IC50: Vero
[8] = tested on: VAC; conditions: cited from earlier work
[9] = tested on: VAR isolate Harper; assay: organism not typed; format: cell-based, variola; conditions: Vero, read-out: IC50, VAR isolate Harper
[10] = tested on: VAC, including recombinant VAC; conditions: mouse, in vivo; cited from earlier work
[11] = read-out: IC50, VAR isolate Garcia

Row | Compound | IC50 [1] [µg/mL] | IC50 [2] [µg/mL] | IC50 [3] [µg/mL] | IC50 [4] [µg/mL] | IC50 [5] [µg/mL] | IC50 [6] [µg/mL] | Therapeutic index (TI) VAR-GAR Vero [7] | IC50 [7, 11] [µg/mL] | IC50 ([7]; read-out: IC50 VAR-GAR Vero) [µg/mL] | activity in vivo, VAC mouse model [8] | IC50 [9] [µg/mL] | activity in murine tailpox models [10]
1 | Nc1ccn(C[C@@H](CO)OCP(=O)(O)O)c(=O)n1 [Cidofovir, 1-[(S)-3-hydroxy-2-(phosphonomethoxy)-propyl]cytosine] | 10 (≈ 35.8 µM) | 19 (≈ 68.1 µM) | 11 (≈ 39.4 µM) | 11 (≈ 39.4 µM) | 14 (≈ 50.1 µM) | 7 (≈ 25.1 µM) | 22.2 | 7 (≈ 25.1 µM) | 4.5 (≈ 16.1 µM) | active in vivo | 28 (≈ 100 µM) | –
2 | NC(=O)c1ncn([C@@H]2O[C@H](CO)[C@@H](O)[C@H]2O)n1 [Ribavirin] | – | 453 (≈ 1850 µM) | – | 61 (≈ 250 µM) | – | 45 (≈ 184 µM) | 5.9 | 39 (≈ 160 µM) | 17 (≈ 69.6 µM) | – | 40 (≈ 164 µM) | active
